Data taken from the supplement of paper PMC10307832.

What was measured:
Assay in all cases: relative viability (nuclei count vs DMSO), 5 days (fraction); higher = more cells survive
ChaGo-K-1 = test system: ChaGo-K-1
In short: (§1)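 Lung cancer cell lines were pin-tool dosed in 1536-well plates on the day after seeding, with either a lone drug or a fixed anchor-drug dose plus five library-drug doses (not always all listed) in √10 steps. Nuclei were counted on 4× images after 5 days. Relative viability is the ratio of treated-well to vehicle-well nuclei counts, with each value a median of duplicate plates.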

EKVX = test system: EKVX
In short: as §1

EMC-BAC-2 = test system: EMC-BAC-2
In short: as §1

H3255 = test system: H3255
In short: as §1

HARA = test system: HARA
In short: as §1

HCC-15 = test system: HCC-15
In short: as §1

HCC-827 = test system: HCC-827
In short: as §1

LC-2-ad = test system: LC-2-ad
In short: as §1

LCLC-97TM1 = test system: LCLC-97TM1
In short: as §1

LU99A = test system: LU99A
In short: as §1

NCI-H1437 = test system: NCI-H1437
In short: as §1

NCI-H1792 = test system: NCI-H1792
In short: as §1

NCI-H1793 = test system: NCI-H1793
In short: as §1

NCI-H1915 = test system: NCI-H1915
In short: as §1

NCI-H1944 = test system: NCI-H1944
In short: as §1

NCI-H2126 = test system: NCI-H2126
In short: as §1

NCI-H23 = test system: NCI-H23
In short: as §1

NCI-H322M = test system: NCI-H322M
In short: as §1

NCI-H441 = test system: NCI-H441
In short: as §1

NCI-H460 = test system: NCI-H460
In short: as §1

NCI-H522 = test system: NCI-H522
In short: as §1

PC-3 [JPC-3] = test system: PC-3 [JPC-3]
In short: as §1

SW 900 = test system: SW 900
In short: as §1

Compound: CCCCCCCCCCCC1=C(O)C(=O)C=C(O)C1=O [Embelin] + NC(=O)Nc1cc(-c2cccc(F)c2)sc1C(=O)N[C@H]1CCCNC1 [AZD7762] (partner 0.2 µM)
- relative viability (ChaGo-K-1; first compound 0.08 µM): 0.861
- relative viability (ChaGo-K-1; first compound 0.8 µM): 0.922
- relative viability (ChaGo-K-1; first compound 2.53 µM): 0.922
- relative viability (ChaGo-K-1; first compound 8 µM): 0.874
- relative viability (EKVX; first compound 0.08 µM): 0.698
- relative viability (EKVX; first compound 0.8 µM): 0.748
- relative viability (EKVX; first compound 2.53 µM): 0.662
- relative viability (EKVX; first compound 8 µM): 0.749
- relative viability (EMC-BAC-2; first compound 0.08 µM): 1.12
- relative viability (EMC-BAC-2; first compound 0.8 µM): 1.22
- relative viability (EMC-BAC-2; first compound 2.53 µM): 1.13
- relative viability (EMC-BAC-2; first compound 8 µM): 1.06
- relative viability (H3255; first compound 0.08 µM): 0.826
- relative viability (H3255; first compound 0.8 µM): 0.975
- relative viability (H3255; first compound 2.53 µM): 0.894
- relative viability (H3255; first compound 8 µM): 0.913
- relative viability (HARA; first compound 0.08 µM): 0.37
- relative viability (HARA; first compound 0.8 µM): 0.455
- relative viability (HARA; first compound 2.53 µM): 0.52
- relative viability (HARA; first compound 8 µM): 0.362
- relative viability (HCC-15; first compound 0.08 µM): 1.14
- relative viability (HCC-15; first compound 0.8 µM): 1.15
- relative viability (HCC-15; first compound 2.53 µM): 1.46
- relative viability (HCC-15; first compound 8 µM): 1.41
- relative viability (HCC-827; first compound 0.08 µM): 0.191
- relative viability (HCC-827; first compound 0.8 µM): 0.21
- relative viability (HCC-827; first compound 2.53 µM): 0.193
- relative viability (HCC-827; first compound 8 µM): 0.278
- relative viability (LC-2-ad; first compound 0.08 µM): 0.884
- relative viability (LC-2-ad; first compound 0.8 µM): 0.888
- relative viability (LC-2-ad; first compound 2.53 µM): 0.916
- relative viability (LC-2-ad; first compound 8 µM): 0.814
- relative viability (LCLC-97TM1; first compound 0.08 µM): 0.223
- relative viability (LCLC-97TM1; first compound 0.8 µM): 0.248
- relative viability (LCLC-97TM1; first compound 2.53 µM): 0.205
- relative viability (LCLC-97TM1; first compound 8 µM): 0.268
- relative viability (LU99A; first compound 0.08 µM): 0.335
- relative viability (LU99A; first compound 0.8 µM): 0.4
- relative viability (LU99A; first compound 2.53 µM): 0.372
- relative viability (LU99A; first compound 8 µM): 0.233
- relative viability (NCI-H1437; first compound 0.08 µM): 1.15
- relative viability (NCI-H1437; first compound 0.8 µM): 1.16
- relative viability (NCI-H1437; first compound 2.53 µM): 1.15
- relative viability (NCI-H1437; first compound 8 µM): 1.2
- relative viability (NCI-H1792; first compound 0.08 µM): 0.853
- relative viability (NCI-H1792; first compound 0.8 µM): 0.849
- relative viability (NCI-H1792; first compound 2.53 µM): 0.814
- relative viability (NCI-H1792; first compound 8 µM): 0.547
- relative viability (NCI-H1793; first compound 0.08 µM): 0.635
- relative viability (NCI-H1793; first compound 0.8 µM): 0.927
- relative viability (NCI-H1793; first compound 2.53 µM): 0.472
- relative viability (NCI-H1793; first compound 8 µM): 0.408
- relative viability (NCI-H1915; first compound 0.08 µM): 0.72
- relative viability (NCI-H1915; first compound 0.8 µM): 0.764
- relative viability (NCI-H1915; first compound 2.53 µM): 0.751
- relative viability (NCI-H1915; first compound 8 µM): 0.614
- relative viability (NCI-H1944; first compound 0.08 µM): 0.449
- relative viability (NCI-H1944; first compound 0.8 µM): 0.566
- relative viability (NCI-H1944; first compound 2.53 µM): 0.526
- relative viability (NCI-H1944; first compound 8 µM): 0.436
- relative viability (NCI-H2126; first compound 0.08 µM): 0.936
- relative viability (NCI-H2126; first compound 0.8 µM): 1.08
- relative viability (NCI-H2126; first compound 2.53 µM): 1.12
- relative viability (NCI-H2126; first compound 8 µM): 1
- relative viability (NCI-H23; first compound 0.08 µM): 0.27
- relative viability (NCI-H23; first compound 0.8 µM): 0.297
- relative viability (NCI-H23; first compound 2.53 µM): 0.3
- relative viability (NCI-H23; first compound 8 µM): 0.248
- relative viability (NCI-H322M; first compound 0.08 µM): 0.585
- relative viability (NCI-H322M; first compound 0.8 µM): 0.632
- relative viability (NCI-H322M; first compound 2.53 µM): 0.568
- relative viability (NCI-H322M; first compound 8 µM): 0.472
- relative viability (NCI-H441; first compound 0.08 µM): 1.09
- relative viability (NCI-H441; first compound 0.8 µM): 1.24
- relative viability (NCI-H441; first compound 2.53 µM): 1.18
- relative viability (NCI-H441; first compound 8 µM): 1.36
- relative viability (NCI-H460; first compound 0.08 µM): 0.658
- relative viability (NCI-H460; first compound 0.8 µM): 0.717
- relative viability (NCI-H460; first compound 2.53 µM): 0.585
- relative viability (NCI-H460; first compound 8 µM): 0.378
- relative viability (NCI-H522; first compound 0.08 µM): 0.865
- relative viability (NCI-H522; first compound 0.8 µM): 1.05
- relative viability (NCI-H522; first compound 2.53 µM): 0.91
- relative viability (NCI-H522; first compound 8 µM): 0.756
- relative viability (PC-3 [JPC-3]; first compound 0.08 µM): 0.765
- relative viability (PC-3 [JPC-3]; first compound 0.8 µM): 0.888
- relative viability (PC-3 [JPC-3]; first compound 2.53 µM): 0.797
- relative viability (PC-3 [JPC-3]; first compound 8 µM): 0.724
- relative viability (SW 900; first compound 0.08 µM): 0.556
- relative viability (SW 900; first compound 0.8 µM): 0.624
- relative viability (SW 900; first compound 2.53 µM): 0.502
- relative viability (SW 900; first compound 8 µM): 0.628
